This is an account of results in patent US20250325565A1, “ERAVACYCLINE FOR TREATING CANCER” (B. G. NEGEV TECHNOLOGIES AND APPLICATIONS LTD., priority 2022, published 2025).

What all share (type): cell-based, human
One test has as its system POLK. The test can be described thus: Western blot of POLK protein expression in BxPC-3 cells. The note with it: BxPC-3, 72 h, increasing concentrations. (Immunoblotting shows a protein as a band on a membrane.)
The next test deals with p53 (mutated in BxPC-3). The test can be described thus: Western blot of p53 protein expression in BxPC-3 cells. The note with it: BxPC-3, 72 h, increasing concentrations.
Another test deals with BxPC-3 cells. The test can be described thus: XTT cell proliferation assay, BxPC-3. On the procedure:
(§1) Human PDAC (AsPC-1, BxPC-3, Panc-1 scr, Panc-1 p53-R273H knock-out (KO) hTERT-HPNE), breast (MCF-7), lung (A549), and colon (HT-29) cancer cell lines were purchased from the American Type Culture Collection (ATCC). The MCF-7, A549, Panc-1 scr, Panc-1 p53 KO and HT-29 cell lines were grown in Dulbecco's Modified Eagle Medium (DMEM; Biological Industries, Beit HaEmek (BI), Israel), and the BxPC-3 and AsPC-1 cell lines were cultured in Roswell Park Memorial Institute-1640 (RPMI-1640; BI, Israel) medium. All media was supplemented with 10% fetal bovine serum (FBS), 200 μM L-glutamine (BI), and 1% penicillin-streptomycin (BI). Cells were cultured at 37° C. in a 5% CO2 humidified incubator.
(§2) Eravacycline dihydrochloride (MedChem Express (MCE)) was dissolved in […] (DDW). Tigecycline (MCE) and omadacycline (MCE) were dissolved in dimethyl sulphoxide (DMSO). All drugs were prepared as 100 mM stock solutions. All cell lines were treated with DMSO as a control (less than 0.1%) or tigecycline, omadacycline, or eravacycline (at the indicated concentrations) for 72 hours. Cell viability and proliferation were determined using the XTT Cell Proliferation Assay Kit (Promega).
(§3) The XTT Cell Proliferation Assay Kit was used to determine cell viability and proliferation. Cells were seeded in 96-well plates at a density of 4,000 cells per well and allowed to attach overnight in a 5% CO2 incubator at 37° C. After overnight incubation, cells were treated with culture medium or in a medium containing tigecycline, omadacycline, or eravacycline at different concentrations (1, 2, 5, 10, 25, and 50 μM) for the indicated time period. Then, 50 μl XTT reaction solution (0.1 ml activation solution+5 ml XTT reagent solution) was added to each well, and the plate was incubated at 37° C. for two hours. After shaking the plate gently to distribute the dye in the wells, the absorbance was measured with a spectrophotometer (Bio-RadiMark Microplate Absorbance reader) at a wavelength of 450 nm and a reference wavelength of 655 nm.
(§4) To evaluate the half maximal inhibitory concentration (IC50) of tetracycline derivatives on five different cell lines (MCF-7, A549, HT-29, BxPC-3, and AsPC-1), the cells were seeded and allowed to attach overnight. All cells were washed with phosphate buffered saline (PBS) and then cultured in fresh media containing the drugs tigecycline, omadacycline, or eravacycline at an increasing concentration (0-50 μM) for 72 h. Inhibition of cell proliferation was determined using the XTT Cell Proliferation Assay Kit.
(§5) To investigate the effect of tetracycline derivatives on cell proliferation in human breast, lung, colon, and PDAC cells, the inventors treated all cell lines (MCF-7, A549, HT-29, BxPC-3, and AsPC-1) with different concentrations of tigecycline, omadacycline, and eravacycline (1, 2, 5, 10, 25, and 50 μM), with medium used as a control, for 72 h. Then, an XTT assay was performed to determine the growth inhibition rate.
On the technique in general: Tetrazolium assays rely on reduction of a dye to a coloured formazan, in cell work by metabolically active cells.

A further test has as its system MCF-7 cells. The test can be described thus: XTT cell proliferation assay, MCF-7. The settings on record: MCF-7, 72 h, 1-50 μM. The procedure:
as §1, §2
(§6) The XTT Cell Proliferation Assay Kit was used to determine cell viability and proliferation. Cells were seeded in 96-well plates at a density of 4,000 cells per well and allowed to attach overnight in a 5% CO2 incubator at 37° C. […] After shaking the plate gently to distribute the dye in the wells, the absorbance was measured with a spectrophotometer (Bio-RadiMark Microplate Absorbance reader) at a wavelength of 450 nm and a reference wavelength of 655 nm.
(§7) To evaluate the half maximal inhibitory concentration (IC50) of tetracycline derivatives on five different cell lines (MCF-7, A549, HT-29, BxPC-3, and AsPC-1), the cells were seeded and allowed to attach overnight. […] Inhibition of cell proliferation was determined using the XTT Cell Proliferation Assay Kit. […]

For another test, the system named is A549 cells. The test is described as follows: XTT cell proliferation assay, A549. The settings on record: A549, 72 h, 1-50 μM. The procedure:
as §1, §2, §6, §7

In the next test the test system is AsPC-1 cells. The test can be described thus: XTT cell proliferation assay, AsPC-1. On the procedure: as §1, §2, §3, §4, §5
The test system of another test is HT-29 cells. The test can be described thus: XTT cell proliferation assay, HT-29. The settings on record: HT-29, 72 h, 1-50 μM. On the procedure: as §1, §2, §6, §7

pIC50: −log10 of the molar value.

On to `COc1cccc2c1C(=O)c1c(O)c3c(c(O)c1C2=O)C[C@@](O)(C(=O)CO)C[C@@H]3O[C@H]1C[C@H](N)[C@H](O)[C@H](C)O1` [doxorubicin], for which, in the test on POLK, the “POLK protein expression vs control” value is “Neither gemcitabine nor doxorubicin reduced”. Besides, the “p53 protein expression vs control” value in the test with p53 (mutated in BxPC-3) was “Neither gemcitabine nor doxorubicin reduced”. For the same compound, the “decrease in cell growth” value is recorded as 67% in the test with BxPC-3 cells (BxPC-3, 1 μM, 72 h) and 94% in the test with BxPC-3 cells (BxPC-3, 10 μM, 72 h).
Take `Nc1ccn([C@@H]2O[C@H](CO)[C@@H](O)C2(F)F)c(=O)n1` [gemcitabine]: the “POLK protein expression vs control” value with POLK is on record as “Neither gemcitabine nor doxorubicin reduced”. For the same compound, the “p53 protein expression vs control” value with p53 (mutated in BxPC-3) is “Neither gemcitabine nor doxorubicin reduced”. The “decrease in cell growth” value in the test on BxPC-3 cells (BxPC-3, 1 μM, 72 h) is recorded as 77%; in the test with BxPC-3 cells (BxPC-3, 10 μM, 72 h), 80%.
Regarding `CN(C)c1cc(CNCC(C)(C)C)c(O)c2c1C[C@H]1C[C@H]3[C@H](N(C)C)C(O)=C(C(N)=O)C(=O)[C@@]3(O)C(O)=C1C2=O` [omadacycline], the “effect on cell survival / proliferation (in words)” value in the test with MCF-7 cells, in the test on A549 cells and in the test on HT-29 cells was “no significant effect on cell survival” in each case. The “effect on cell survival / viability (in words)” value in the test with AsPC-1 cells (AsPC-1, 72 h, 1-50 μM) is recorded as “no significant effect on cell survival”; in the test on BxPC-3 cells (BxPC-3, 72 h, 1-50 μM), “no significant effect on cell survival”.
Take `CN(C)c1cc(NC(=O)CNC(C)(C)C)c(O)c2c1C[C@H]1C[C@H]3[C@H](N(C)C)C(O)=C(C(N)=O)C(=O)[C@@]3(O)C(O)=C1C2=O` [tigecycline]: the “effect on cell survival / proliferation (in words)” value in the test with MCF-7 cells and with HT-29 cells was “no significant effect” in each case. Besides, the “suppression of proliferation, up to” value in the test on A549 cells (concentration-dependent) is listed as 60-65%; in the test on AsPC-1 cells (AsPC-1, 72 h, concentration-dependent, 1-50 μM), 60-65%; with BxPC-3 cells (BxPC-3, 72 h, concentration-dependent, 1-50 μM) it was 60-65%. Moreover, the pIC50 was 5.34 in the test on AsPC-1 cells (Homo sapiens, ASPC1, 72 h, read-out: IC50, inhibition of cell proliferation) and 5.00 in the test with BxPC-3 cells (Homo sapiens, BXPC-3, 72 h, read-out: IC50, inhibition of cell proliferation). For the same compound, the cytotoxicity at 25 µM with BxPC-3 cells (Homo sapiens, BXPC-3, 72 h, BxPC-3, 25 μM, 72 h, read-out: decrease in cell growth / viability) was found to be 60%.
